Source: ChEMBL document CHEMBL5291721, “A preclinical secondary pharmacology resource illuminates target-adverse drug reaction associations of marketed drugs” (Nat Commun, 2023)
“And” between values parts separate entries of the source, which are not always exact repeats. Equal values may be shown once.

Tests used:
[1] = molecular target: 5-hydroxytryptamine receptor 2B (Homo sapiens, UniProt P41595); format: functional, cell-based
[2] = molecular target: Muscarinic acetylcholine receptor M3 (Homo sapiens, UniProt P20309)
Glucocorticoid receptor = molecular target: T1, Glucocorticoid receptor (Homo sapiens, UniProt P04150)
T1 sequence (P04150 whole entry): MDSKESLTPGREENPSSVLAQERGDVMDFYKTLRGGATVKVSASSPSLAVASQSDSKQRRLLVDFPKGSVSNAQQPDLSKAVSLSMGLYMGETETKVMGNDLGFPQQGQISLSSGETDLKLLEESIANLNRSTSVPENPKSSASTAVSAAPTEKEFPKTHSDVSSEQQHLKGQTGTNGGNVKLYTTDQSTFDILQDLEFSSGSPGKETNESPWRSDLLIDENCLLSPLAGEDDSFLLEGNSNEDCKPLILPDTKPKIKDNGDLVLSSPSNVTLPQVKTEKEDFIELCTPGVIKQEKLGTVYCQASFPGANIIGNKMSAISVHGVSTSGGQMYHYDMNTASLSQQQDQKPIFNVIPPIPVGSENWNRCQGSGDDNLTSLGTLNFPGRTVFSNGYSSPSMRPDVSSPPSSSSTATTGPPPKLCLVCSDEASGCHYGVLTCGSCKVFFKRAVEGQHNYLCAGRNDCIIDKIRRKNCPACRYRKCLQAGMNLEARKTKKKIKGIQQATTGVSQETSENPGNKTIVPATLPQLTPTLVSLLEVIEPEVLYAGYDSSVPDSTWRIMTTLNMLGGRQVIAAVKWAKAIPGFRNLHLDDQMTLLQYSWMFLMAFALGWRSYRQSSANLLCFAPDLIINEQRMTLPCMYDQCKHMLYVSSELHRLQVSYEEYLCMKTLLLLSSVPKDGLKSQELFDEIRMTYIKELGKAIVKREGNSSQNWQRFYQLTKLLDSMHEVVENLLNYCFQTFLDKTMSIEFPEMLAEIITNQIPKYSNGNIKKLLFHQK

Progesterone receptor = molecular target: T2, Progesterone receptor (Homo sapiens, UniProt P06401); format: functional
T2 sequence (P06401 whole entry): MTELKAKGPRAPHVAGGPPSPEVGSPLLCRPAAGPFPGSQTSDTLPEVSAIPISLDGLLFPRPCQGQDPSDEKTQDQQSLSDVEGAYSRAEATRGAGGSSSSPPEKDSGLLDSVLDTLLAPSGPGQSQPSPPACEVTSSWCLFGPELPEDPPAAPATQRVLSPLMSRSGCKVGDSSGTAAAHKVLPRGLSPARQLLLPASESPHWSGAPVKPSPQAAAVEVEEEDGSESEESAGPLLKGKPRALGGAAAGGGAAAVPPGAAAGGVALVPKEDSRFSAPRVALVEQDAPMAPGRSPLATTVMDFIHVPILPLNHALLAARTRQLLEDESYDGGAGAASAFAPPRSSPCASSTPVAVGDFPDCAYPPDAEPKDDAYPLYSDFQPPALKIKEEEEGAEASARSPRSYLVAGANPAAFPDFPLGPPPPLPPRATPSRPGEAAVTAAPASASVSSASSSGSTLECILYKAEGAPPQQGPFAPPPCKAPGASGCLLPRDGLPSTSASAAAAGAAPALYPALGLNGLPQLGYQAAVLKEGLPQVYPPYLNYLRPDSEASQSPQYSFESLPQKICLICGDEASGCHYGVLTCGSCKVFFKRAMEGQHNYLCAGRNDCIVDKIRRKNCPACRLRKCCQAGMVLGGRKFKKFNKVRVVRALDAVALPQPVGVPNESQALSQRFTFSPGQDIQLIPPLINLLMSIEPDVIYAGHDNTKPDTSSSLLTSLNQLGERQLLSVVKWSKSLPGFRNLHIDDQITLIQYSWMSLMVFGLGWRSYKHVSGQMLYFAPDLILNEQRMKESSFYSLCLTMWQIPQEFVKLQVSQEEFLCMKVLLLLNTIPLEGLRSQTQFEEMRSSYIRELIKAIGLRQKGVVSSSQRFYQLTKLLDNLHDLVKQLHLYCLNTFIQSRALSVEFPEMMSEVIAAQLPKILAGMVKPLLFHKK

Estrogen receptor = molecular target: T3, Estrogen receptor (Homo sapiens, UniProt P03372)
T3 sequence (P03372 whole entry): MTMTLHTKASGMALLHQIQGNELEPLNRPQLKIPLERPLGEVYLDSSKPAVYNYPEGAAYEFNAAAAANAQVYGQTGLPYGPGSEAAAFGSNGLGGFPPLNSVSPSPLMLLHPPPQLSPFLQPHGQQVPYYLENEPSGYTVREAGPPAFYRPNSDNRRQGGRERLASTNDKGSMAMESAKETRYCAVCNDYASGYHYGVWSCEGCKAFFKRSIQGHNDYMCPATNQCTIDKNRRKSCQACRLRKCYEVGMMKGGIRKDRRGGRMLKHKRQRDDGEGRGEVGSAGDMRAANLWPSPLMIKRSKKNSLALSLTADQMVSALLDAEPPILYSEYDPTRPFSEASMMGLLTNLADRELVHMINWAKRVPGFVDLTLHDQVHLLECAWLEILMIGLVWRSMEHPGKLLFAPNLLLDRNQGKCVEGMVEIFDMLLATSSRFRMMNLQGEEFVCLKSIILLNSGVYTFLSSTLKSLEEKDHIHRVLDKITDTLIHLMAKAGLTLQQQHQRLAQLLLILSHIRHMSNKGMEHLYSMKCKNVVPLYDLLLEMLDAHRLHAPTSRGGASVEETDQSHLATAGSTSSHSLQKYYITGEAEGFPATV

[3] = molecular target: Beta-2 adrenergic receptor (Homo sapiens, UniProt P07550)
[4] = molecular target: T4, Alpha-1A adrenergic receptor (Homo sapiens, UniProt P35348); format: functional, cell-based
T4 sequence (P35348 whole entry): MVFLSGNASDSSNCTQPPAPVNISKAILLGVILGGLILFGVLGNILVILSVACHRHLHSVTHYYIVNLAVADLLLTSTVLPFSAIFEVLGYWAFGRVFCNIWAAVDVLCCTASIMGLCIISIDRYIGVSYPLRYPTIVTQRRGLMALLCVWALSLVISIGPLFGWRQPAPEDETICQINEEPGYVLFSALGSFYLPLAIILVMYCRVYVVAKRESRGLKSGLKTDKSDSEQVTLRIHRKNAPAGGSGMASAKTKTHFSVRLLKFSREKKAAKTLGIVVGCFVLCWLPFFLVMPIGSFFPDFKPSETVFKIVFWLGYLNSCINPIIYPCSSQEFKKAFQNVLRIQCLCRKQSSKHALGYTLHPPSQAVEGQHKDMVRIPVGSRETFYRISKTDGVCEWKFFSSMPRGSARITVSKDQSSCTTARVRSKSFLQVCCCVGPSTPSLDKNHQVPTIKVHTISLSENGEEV

Vasopressin V1a receptor = Vasopressin V1a receptor (Homo sapiens, UniProt P37288)
[5] = molecular target: Growth hormone secretagogue receptor type 1 (Homo sapiens, UniProt Q92847)
Further: assay procedure not described here.

Chain of Growth hormone secretagogue receptor type 1 (Q92847 whole entry): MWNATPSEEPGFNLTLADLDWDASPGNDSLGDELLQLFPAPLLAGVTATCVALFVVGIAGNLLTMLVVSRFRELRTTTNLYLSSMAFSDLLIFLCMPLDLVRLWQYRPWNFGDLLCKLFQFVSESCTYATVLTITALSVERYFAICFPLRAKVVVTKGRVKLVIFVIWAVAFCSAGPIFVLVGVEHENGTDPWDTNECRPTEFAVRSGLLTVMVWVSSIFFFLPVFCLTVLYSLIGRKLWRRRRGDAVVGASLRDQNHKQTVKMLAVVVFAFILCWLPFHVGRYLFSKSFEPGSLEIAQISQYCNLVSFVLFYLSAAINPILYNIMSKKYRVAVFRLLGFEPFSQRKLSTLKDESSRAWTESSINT
Chain of Muscarinic acetylcholine receptor M3 (P20309 whole entry): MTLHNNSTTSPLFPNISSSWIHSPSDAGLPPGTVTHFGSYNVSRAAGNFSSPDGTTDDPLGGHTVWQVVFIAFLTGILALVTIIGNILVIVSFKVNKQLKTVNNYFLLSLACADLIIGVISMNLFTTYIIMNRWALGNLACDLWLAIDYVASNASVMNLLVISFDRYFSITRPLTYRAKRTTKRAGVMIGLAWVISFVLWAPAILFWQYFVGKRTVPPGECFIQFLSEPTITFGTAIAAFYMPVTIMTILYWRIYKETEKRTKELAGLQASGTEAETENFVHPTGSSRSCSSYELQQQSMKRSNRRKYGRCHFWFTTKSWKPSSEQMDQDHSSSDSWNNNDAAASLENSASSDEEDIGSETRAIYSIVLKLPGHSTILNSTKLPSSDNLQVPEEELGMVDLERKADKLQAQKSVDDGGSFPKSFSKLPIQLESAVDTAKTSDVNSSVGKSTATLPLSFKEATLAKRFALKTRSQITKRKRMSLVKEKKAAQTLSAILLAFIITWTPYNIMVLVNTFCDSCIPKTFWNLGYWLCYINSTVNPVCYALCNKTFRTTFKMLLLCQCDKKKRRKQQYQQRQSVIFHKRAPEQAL
Chain of Vasopressin V1a receptor (P37288 whole entry): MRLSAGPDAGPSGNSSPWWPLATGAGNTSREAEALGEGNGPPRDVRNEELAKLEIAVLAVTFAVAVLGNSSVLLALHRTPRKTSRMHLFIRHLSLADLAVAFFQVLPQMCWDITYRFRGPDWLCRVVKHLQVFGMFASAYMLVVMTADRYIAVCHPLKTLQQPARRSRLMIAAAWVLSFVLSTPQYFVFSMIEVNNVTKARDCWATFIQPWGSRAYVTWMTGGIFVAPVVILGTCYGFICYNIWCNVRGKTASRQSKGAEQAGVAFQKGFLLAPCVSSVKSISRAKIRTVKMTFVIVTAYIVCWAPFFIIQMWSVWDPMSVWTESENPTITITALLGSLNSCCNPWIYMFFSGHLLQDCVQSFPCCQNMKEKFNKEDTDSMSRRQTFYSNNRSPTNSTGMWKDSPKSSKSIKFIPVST
Chain of 5-hydroxytryptamine receptor 2B (P41595 whole entry): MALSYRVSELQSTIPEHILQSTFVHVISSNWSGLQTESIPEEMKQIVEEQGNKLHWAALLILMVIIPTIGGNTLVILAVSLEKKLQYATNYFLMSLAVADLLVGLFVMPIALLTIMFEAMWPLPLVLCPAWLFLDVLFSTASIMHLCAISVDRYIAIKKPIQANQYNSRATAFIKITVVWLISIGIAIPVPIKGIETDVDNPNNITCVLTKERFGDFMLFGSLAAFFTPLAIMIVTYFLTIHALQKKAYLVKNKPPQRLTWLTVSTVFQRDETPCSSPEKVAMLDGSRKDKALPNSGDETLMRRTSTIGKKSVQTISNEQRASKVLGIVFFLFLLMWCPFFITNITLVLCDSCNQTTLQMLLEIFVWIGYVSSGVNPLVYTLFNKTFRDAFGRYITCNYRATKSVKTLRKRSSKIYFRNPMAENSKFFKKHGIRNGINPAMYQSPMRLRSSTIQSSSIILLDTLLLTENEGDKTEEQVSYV
Chain of Beta-2 adrenergic receptor (P07550 whole entry): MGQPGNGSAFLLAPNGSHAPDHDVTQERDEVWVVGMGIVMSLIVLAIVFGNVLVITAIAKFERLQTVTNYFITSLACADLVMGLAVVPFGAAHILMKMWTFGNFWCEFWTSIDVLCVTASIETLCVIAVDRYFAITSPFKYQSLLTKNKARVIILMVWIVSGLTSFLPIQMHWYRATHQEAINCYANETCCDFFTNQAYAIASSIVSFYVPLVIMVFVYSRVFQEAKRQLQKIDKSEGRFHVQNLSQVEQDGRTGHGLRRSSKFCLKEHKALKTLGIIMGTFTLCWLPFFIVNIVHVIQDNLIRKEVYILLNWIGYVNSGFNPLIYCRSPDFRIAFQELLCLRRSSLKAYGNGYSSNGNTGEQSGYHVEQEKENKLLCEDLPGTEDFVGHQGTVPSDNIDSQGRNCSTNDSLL

Cc1ccc2c(-c3ccccc3)nc(=O)n(C(C)C)c2c1 [PROQUAZONE]
AC50 [1]: > 30 µM
AC50 [2]: > 30 µM
AC50 (Glucocorticoid receptor): > 30 µM
AC50 (Progesterone receptor): > 30 µM
AC50 (Estrogen receptor): > 30 µM
AC50 [3]: > 30 µM
AC50 [4]: > 30 µM
AC50 (Vasopressin V1a receptor): > 30 µM
AC50 [5]: > 30 µM

CC(NCCc1ccc(O)cc1)C(O)c1ccc(O)cc1 (stereo unspecified) [RITODRINE]
AC50 [1]: > 30 µM
AC50 [2]: > 30 µM
AC50 (Glucocorticoid receptor): > 30 µM
AC50 (Progesterone receptor): > 30 µM
AC50 (Estrogen receptor): > 30 µM
AC50 [3]: 4.71 µM and 4.14 µM
AC50 [4]: > 30 µM
AC50 (Vasopressin V1a receptor): > 30 µM
AC50 [5]: > 30 µM

CN1c2ccccc2C(NCCCCCCC(=O)O)c2ccc(Cl)cc2S1(=O)=O (stereo unspecified) [TIANEPTINE]
AC50 [1]: > 30 µM
AC50 [2]: > 30 µM
AC50 (Glucocorticoid receptor): > 30 µM
AC50 (Progesterone receptor): > 30 µM
AC50 (Estrogen receptor): > 30 µM
AC50 [3]: > 30 µM
AC50 [4]: > 30 µM
AC50 (Vasopressin V1a receptor): > 30 µM
AC50 [5]: > 30 µM

C=CC(N)CCC(=O)O (stereo unspecified) [VIGABATRIN]
AC50 [1]: > 10 µM
AC50 [2]: > 30 µM
AC50 (Glucocorticoid receptor): > 10 µM
AC50 (Progesterone receptor): > 10 µM
AC50 (Estrogen receptor): > 10 µM
AC50 [3]: > 10 µM
AC50 [4]: > 30 µM
AC50 (Vasopressin V1a receptor): > 10 µM
AC50 [5]: > 10 µM
